Measurements from US5656308A, “Non-reducing oligosaccharide with neotrehalose structure, and its production and uses” (Kabushiki Kaisha Hayashibara Seibutsu Kagaku Kenkyujo, priority 1993, dated 1997).

System: mice
Test: Acute toxicity in mice upon oral administration
Type: in vivo
Procedure: High-purity β-maltosyl α-glucoside, α-maltosyl β-glucoside, β-maltotriosyl α-glucoside, α-maltotriosyl β-glucoside and β-maltosyl α-maltoside prepared by the method in Experiment 2 were tested for acute toxicity in mice upon oral administration.

| SMILES | acute toxicity (in words) | death with maximum administrable dose |
| --- | --- | --- |
| OC[C@H]1O[C@@H](O[C@H]2O[C@H](CO)[C@@H](O[C@H]3O[C@H](CO)[C@@H](O)[C@H](O)[C@H]3O)[C@H](O)[C@H]2O)[C@H](O)[C@@H](O)[C@@H]1O [α-maltosyl β-glucoside, O-α-D-glucopyranosyl-(1→4)-α-D-glucopyranosyl β-D-glucopyranoside] | less toxic | no death was observed |
| OC[C@H]1O[C@H](O[C@@H]2O[C@H](CO)[C@@H](O[C@H]3O[C@H](CO)[C@@H](O)[C@H](O)[C@H]3O)[C@H](O)[C@H]2O)[C@H](O)[C@@H](O)[C@@H]1O [β-maltosyl α-glucoside, O-α-D-glucopyranosyl-(1→4)-β-D-glucopyranosyl α-D-glucopyranoside] | less toxic | no death was observed |
| OC[C@H]1O[C@@H](O[C@H]2O[C@H](CO)[C@@H](O[C@H]3O[C@H](CO)[C@@H](O[C@H]4O[C@H](CO)[C@@H](O)[C@H](O)[C@H]4O)[C@H](O)[C@H]3O)[C@H](O)[C@H]2O)[C@H](O)[C@@H](O)[C@@H]1O [α-maltotriosyl β-glucoside, O-α-D-gluco- pyranosyl-(1→4)-O-α-D-glucopyranosyl-(1→4)-α-D-glucopyranosyl β-D-glucopyranoside] | less toxic | no death was observed |
| OC[C@H]1O[C@H](O[C@@H]2O[C@H](CO)[C@@H](O[C@H]3O[C@H](CO)[C@@H](O[C@H]4O[C@H](CO)[C@@H](O)[C@H](O)[C@H]4O)[C@H](O)[C@H]3O)[C@H](O)[C@H]2O)[C@H](O)[C@@H](O)[C@@H]1O [β-maltotriosyl α-glucoside, O-α-D-glucopyranosyl-(1→4)-O-α-D-glucopyranosyl-(1→4)-β-D-glucopyranosyl α-D-glucopyranoside] | less toxic | no death was observed |
| OC[C@H]1O[C@H](O[C@H]2[C@H](O)[C@@H](O)[C@H](O[C@H]3O[C@H](CO)[C@@H](O[C@H]4O[C@H](CO)[C@@H](O)[C@H](O)[C@H]4O)[C@H](O)[C@H]3O)O[C@@H]2CO)[C@H](O)[C@@H](O)[C@@H]1O [β-maltosyl α-maltoside, O-α-D-glucopyranosyl-(1→4)-β-D-glucopyranosyl α-D-maltoside] | less toxic | no death was observed |
